Assay results taken from patent publication US12017996B2, “Substituted quinolines and formulations thereof” (JIANGSU MEDOLUTION LTD, priority 2021, dated 2024).

Tests used:
Type in all cases: physicochemical
[1] = Solubility of Compound A in solvents
From the text: (§1) For example, Compound A is soluble in acetic acid and hydrochloric acid solution (0.1 M). […] Compound A's dissociation constants: pKa1 is 4.99; pKa2 is 10.26.

[2] = Dissociation constants
From the text: as §1

[3] = Compatibility test of excipients (impurities over time)
Experimental: Each of mannitol, sodium starch glycolate, hydroxpropyl cellulose and glyceryl behenate was individually mixed with Compound A. The resulting mixture was tested for the impurities over time under the following conditions: lumination 4500±500 Lux; high humidity at 90±5%; high temperature at 40±2° C.; and accelerated condition at humidity of 75±5% and temperature of 40±2° C. Testing were done at day 0, day 7 and day 14. The percentage of the total impurities and the SZMD4-Z8 impurity were recorded together with other data.

[4] = high temperature 40±2° C., day 7
[5] = high temperature 40±2° C., day 14
[6] = lumination 4500±500 Lux, day 14

solubility ([1]; in acetic acid): soluble
solubility ([1]; in acetonitrile): slightly soluble
solubility ([1]; in ethanol): slightly soluble
solubility ([1]; in hydrochloric acid solution (0.1 M)): soluble
solubility ([1]; in n-propanol): hardly soluble
solubility ([1]; in sodium hydroxide solution (0.1 M)): not soluble
solubility ([1]; in water): extremely slightly soluble
dissociation constant pKa1 [2]: 4.99
dissociation constant pKa2 [2]: 10.26
SZMD4-Z8 impurity ([3]; day 0): 0.03%
Total Impurities ([3]; day 0): 0.29%
SZMD4-Z8 impurity ([3]; high humidity 90±5%, day 7): 0.04%
Total Impurities ([3]; high humidity 90±5%, day 7): 0.31%
SZMD4-Z8 impurity ([3]; high humidity 90±5%, day 14): 0.04%
Total Impurities ([3]; high humidity 90±5%, day 14): 0.30%
SZMD4-Z8 impurity [3, 4]: 0.03%
Total Impurities [3, 4]: 0.31%
SZMD4-Z8 impurity [3, 5]: 0.03%
Total Impurities [3, 5]: 0.30%
SZMD4-Z8 impurity ([3]; lumination 4500±500 Lux, day 7): 0.03%
Total Impurities ([3]; lumination 4500±500 Lux, day 7): 0.40%
SZMD4-Z8 impurity [3, 6]: 0.03%
Total Impurities [3, 6]: 0.44%%
SMILES: C#Cc1cccc(Nc2c(C#N)cnc3cc(OCC)c(NC(=O)/C=C/CN(C)C)cc23)c1.O=C(O)/C=C\C(=O)O [Compound A, (E)-N-[3-cyano-7-ethoxy-4-(3-ethynylanilino)-6-quinolyl]-4-(dimethylamino)but-2-enamide maleate]
